According to the supplement of paper PMC11061612:

Tests used:
[1] = compound: Nc1ccn([C@@H]2O[C@H](CO)[C@@H](O)C2(F)F)c(=O)n1 [Gemcitabine]; conditions: max 0.3 µM
How it was run: (§1)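 Cancer cell lines were plated in 1536-well plates in 7.5 μl of DMEM/F12 or RPMI with 10% FBS and kept 24 hours at 37°C and 5% CO2 before 72 hours of dosing, with final DMSO typically 0.2%. CellTiter-Glo 2.0 luminescence measured viability, scaled between blank-well and DMSO-well means. Dose responses were fitted to a two-parameter logistic curve with a non-linear mixed effects model. This fit gives the single-agent IC50.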

[2] = compound: CC(=O)O[C@H]1C(=O)[C@@]2(C)[C@H]([C@H](OC(=O)c3ccccc3)[C@]3(O)C[C@H](OC(=O)[C@H](O)[C@@H](NC(=O)c4ccccc4)c4ccccc4)C(C)=C1C3(C)C)[C@]1(OC(C)=O)CO[C@@H]1C[C@@H]2O [Paclitaxel]; conditions: max 3 µM
How it was run: as §1

[3] = compound: Cc1nc(-c2cn3c(n2)-c2ccc(-c4cnn(C(C)(C)C(N)=O)c4)cc2OCC3)n(C(C)C)n1 [Taselisib]; conditions: max 10 µM
How it was run: as §1

[4] = compound: O=C(Nc1ccc2[nH]nc(-c3ccncc3)c2c1)[C@@H]1CCN(CC(=O)N2CCN(c3ccc(-c4ncccn4)cc3)CC2)C1; conditions: max 5 µM
How it was run: as §1

[5] = compound: COc1cc([C@@H]2c3cc4c(cc3[C@@H](O[C@@H]3O[C@@H]5CO[C@@H](C)O[C@H]5[C@H](O)[C@H]3O)[C@H]3COC(=O)[C@H]23)OCO4)cc(OC)c1O [Etoposide]; conditions: max 10 µM
How it was run: as §1

[6] = compound: C=CCn1c(=O)c2cnc(Nc3ccc(N4CCN(C)CC4)cc3)nc2n1-c1cccc(C(C)(C)O)n1 [AZD1775]; conditions: max 3 µM
How it was run: as §1

[7] = compound: CC(C)n1c(=O)n(C)c2cnc3cc(F)c(-c4ccc(OCCCN5CCCCC5)nc4)cc3c21 [AZD1390]; conditions: max 0.3 µM
How it was run: as §1

[8] = compound: COc1cc2ncnc(Nc3ccc(F)c(Cl)c3)c2cc1OCCCN1CCOCC1 [Gefitinib]; conditions: max 10 µM
How it was run: as §1

[9] = compound: O=c1[nH]cc(F)c(=O)[nH]1 [5-Fluorouracil]; conditions: max 20 µM
How it was run: as §1

[10] = compound: N#Cc1cnc(Nc2cc(NC[C@H]3CNCCO3)c(C(F)(F)F)cn2)cn1 [SRA737]; conditions: max 10 µM
How it was run: as §1

[11] = compound: CC(=O)Nc1cccc(-n2c(=O)n(C3CC3)c(=O)c3c(Nc4ccc(I)cc4F)n(C)c(=O)c(C)c32)c1 [Trametinib]; conditions: max 1 µM
How it was run: as §1

[12] = compound: CCc1c2c(nc3ccc(O)cc13)-c1cc3c(c(=O)n1C2)COC(=O)[C@]3(O)CC [SN-38]; conditions: max 0.3 µM
How it was run: as §1

[13] = compound: C1CN(CCC1(C(=O)N[C@@H](CCO)C2=CC=C(C=C2)Cl)N)C3=NC=NC4=C3C=CN4 [AZD5363]; conditions: max 10 µM
How it was run: as §1

[14] = compound: C1CC(C1)(C(=O)[O-])C(=O)[O-].N.N.[Pt+2] [Carboplatin]; conditions: max 10 µM
How it was run: as §1

[15] = compound: COc1cc(Nc2ncc3c(n2)-c2ccc(Cl)cc2C(c2c(F)cccc2OC)=NC3)ccc1C(=O)O [Alisertib]; conditions: max 10 µM
How it was run: as §1

[16] = compound: C[C@@H](c1ccc2nccn2c1)n1nnc2ncc(-c3cnn(C)c3)nc21 [Savolitinib]; conditions: max 1 µM
How it was run: as §1

[17] = compound: CC(=O)c1c(C)c2cnc(Nc3ccc(N4CCNCC4)cn3)nc2n(C2CCCC2)c1=O [Palbociclib]; conditions: max 10 µM
How it was run: as §1

[18] = compound: NC1(c2ccc(-c3nc4ccn5c(=O)[nH]nc5c4cc3-c3ccccc3)cc2)CCC1 [MK-2206]; conditions: max 10 µM
How it was run: as §1

[19] = compound: O=C(c1cc(Cc2n[nH]c(=O)c3ccccc23)ccc1F)N1CCN(C(=O)C2CC2)CC1 [Olaparib]; conditions: max 10 µM
How it was run: as §1

[20] = compound: C[C@@H](Oc1cc(-c2cnn(C3CCNCC3)c2)cnc1N)c1c(Cl)ccc(F)c1Cl [Crizotinib]; conditions: max 10 µM
How it was run: as §1

[21] = compound: CS(=O)(=O)CCNCc1ccc(-c2ccc3ncnc(Nc4ccc(OCc5cccc(F)c5)c(Cl)c4)c3c2)o1 [Lapatinib]; conditions: max 10 µM
How it was run: as §1

[22] = compound: Cc1cc2ncnn2cc1Nc1ncc2c(n1)n(C1CCOCC1)c(=O)n2C [AZD7648]; conditions: max 10 µM
How it was run: as §1

[23] = compound: C[C@@H](Nc1cc(F)cc(F)c1)c1cc(C(=O)N(C)C)cc2c(=O)cc(N3CCOCC3)oc12 [AZD8186]; conditions: max 10 µM
How it was run: as §1

[24] = compound: CCN(CCO)CCCOc1ccc2c(Nc3cc(CC(=O)Nc4cccc(F)c4)[nH]n3)ncnc2c1 [AZD2811]; conditions: max 1 µM
How it was run: as §1

[25] = compound: CC1(C)CCC(CN2CCN(c3ccc(C(=O)NS(=O)(=O)c4ccc(NCC5CCOCC5)c([N+](=O)[O-])c4)c(Oc4cnc5[nH]ccc5c4)c3)CC2)=C(c2ccc(Cl)cc2)C1 [Venetoclax]; conditions: max 1 µM
How it was run: as §1

[26] = compound: CN(C)CCCOc1ccc(-c2ccc3ncc4c(c3c2)n(C2CCOCC2)c(=O)n4C)cn1 [AZD0156]; conditions: max 3 µM
How it was run: as §1

[27] = compound: C[C@@H]1COCCN1C2=NC(=NC(=C2)C3(CC3)[S@](=N)(=O)C)C4=C5C=CNC5=NC=C4 [AZD6738]; conditions: max 10 µM
How it was run: as §1

[28] = compound: COc1nnc2ccc(N3CCC(c4ccc(OCCN5CCN(C)C(=O)[C@H]5C)cc4)CC3)nn12 [AZD5153]; conditions: max 1 µM
How it was run: as §1

[29] = compound: COc1cccc(OCCCN)c1-c1cc(Nc2cnc(C#N)cn2)n[nH]1 [Prexasertib]; conditions: max 1 µM
How it was run: as §1

[30] = compound: Cn1cnc2c(F)c(Nc3ccc(Br)cc3Cl)c(C(=O)NOCCO)cc21 [Selumetinib]; conditions: max 10 µM
How it was run: as §1

[31] = compound: Cc1c2c(nn1C)CSCc1cc(n(C)n1)CSc1cc(c3ccccc3c1)OCCCc1c(C(=O)O)n(C)c3c-2c(Cl)ccc13 [AZD5991]; conditions: max 1 µM
How it was run: as §1

[32] = compound: CC1=C(C(=CC=C1)Cl)NC(=O)C2=CN=C(S2)NC3=CC(=NC(=N3)C)N4CCN(CC4)CCO [Dasatinib]; conditions: max 2 µM
How it was run: as §1

[33] = compound: CC1=CN2[C@@H](C1)C=NC3=CC(=C(C=C3C2=O)OC)OCCCCCOC4=C(C=C5C(=C4)N=C[C@@H]6CC(=CN6C5=O)C)OC [SG3199]; conditions: max 0.001 µM
How it was run: as §1

[34] = compound: COc1cccc2c1C(=O)c1c(O)c3c(c(O)c1C2=O)C[C@@](O)(C(=O)CO)C[C@@H]3O[C@H]1C[C@H](N)[C@H](O)[C@H](C)O1 [Doxorubicin]; conditions: max 1 µM
How it was run: as §1

[35] = compound: CN(CC[C@H](CSC1=CC=CC=C1)NC2=C(C=C(C=C2)S(=O)(=O)NC(=O)C3=CC=C(C=C3)N4CCC(CC4)[C@H](C5=CC=CC=C5C6=CC=C(C=C6)Cl)O)S(=O)(=O)C(F)(F)F)CCO [AZD4320]; conditions: max 1 µM
How it was run: as §1

| Cell Line | IC50, cell viability 72 h [1] [nM] | IC50, cell viability 72 h [2] [nM] | IC50, cell viability 72 h [3] [µM] | IC50, cell viability 72 h [4] [µM] | IC50, cell viability 72 h [5] [µM] | IC50, cell viability 72 h [6] [nM] | IC50, cell viability 72 h [7] [nM] | IC50, cell viability 72 h [8] [µM] | IC50, cell viability 72 h [9] [µM] | IC50, cell viability 72 h [10] [µM] | IC50, cell viability 72 h [11] [nM] | IC50, cell viability 72 h [12] [nM] | IC50, cell viability 72 h [13] [µM] | IC50, cell viability 72 h [14] [µM] | IC50, cell viability 72 h [15] [µM] | IC50, cell viability 72 h [16] [nM] | IC50, cell viability 72 h [17] [µM] | IC50, cell viability 72 h [18] [µM] | IC50, cell viability 72 h [19] [µM] | IC50, cell viability 72 h [20] [µM] | IC50, cell viability 72 h [21] [µM] | IC50, cell viability 72 h [22] [µM] | IC50, cell viability 72 h [23] [µM] | IC50, cell viability 72 h [24] [nM] | IC50, cell viability 72 h [25] [nM] | IC50, cell viability 72 h [26] [nM] | IC50, cell viability 72 h [27] [µM] | IC50, cell viability 72 h [28] [nM] | IC50, cell viability 72 h [29] [nM] | IC50, cell viability 72 h [30] [µM] | IC50, cell viability 72 h [31] [nM] | IC50, cell viability 72 h [32] [nM] | IC50, cell viability 72 h [33] [nM] | IC50, cell viability 72 h [34] [nM] | IC50, cell viability 72 h [35] [nM] |
| --- | --- | --- | --- | --- | --- | --- | --- | --- | --- | --- | --- | --- | --- | --- | --- | --- | --- | --- | --- | --- | --- | --- | --- | --- | --- | --- | --- | --- | --- | --- | --- | --- | --- | --- | --- |
| KYAE-1 (Esophageal Adenocarcinoma) | > 300 | > 3000 | 1.88 | > 5 | > 10 | > 3000 | > 300 | 4.58 | > 20 | > 10 | > 1000 | > 300 | > 10 | > 10 | > 10 | > 1000 | > 10 | > 10 | > 10 | > 10 | 3.34 | > 10 | > 10 | > 1000 | > 1000 | > 3000 | > 10 | > 1000 | 829 | > 10 | > 1000 | > 2000 | > 1 | > 1000 | > 1000 |
| LNZTA3WT4 (Low Grade Glioma) | 99.7 | 141 | > 10 | > 5 | > 10 | 624 | > 300 | > 10 | > 20 | 4.63 | > 1000 | 269 | > 10 | > 10 | > 10 | > 1000 | > 10 | > 10 | > 10 | > 10 | > 10 | > 10 | > 10 | > 1000 | > 1000 | > 3000 | 4.5 | > 1000 | 18.7 | > 10 | > 1000 | > 2000 | > 1 | > 1000 | > 1000 |
| LOXIMVI (Melanoma) | 58.9 | 26.8 | 2.17 | 0.145 | > 10 | 1370 | > 300 | > 10 | > 20 | > 10 | 17.8 | 28.9 | > 10 | > 10 | 5.35 | > 1000 | 9.91 | > 10 | > 10 | 6.35 | > 10 | > 10 | > 10 | > 1000 | > 1000 | > 3000 | 3.27 | 111 | 89.6 | 1.5 | > 1000 | 135 | > 1 | 294 | > 1000 |
| MPP-89 (Mesothelioma) | > 300 | 842 | > 10 | > 5 | > 10 | 1550 | > 300 | > 10 | > 20 | > 10 | > 1000 | 172 | > 10 | > 10 | 9.37 | > 1000 | > 10 | > 10 | > 10 | > 10 | > 10 | > 10 | > 10 | > 1000 | > 1000 | > 3000 | > 10 | > 1000 | 67.2 | > 10 | > 1000 | 558 | > 1 | > 1000 | > 1000 |
| NCI-H524 (Small Cell Lung Carcinoma) | 189 | 3.26 | 8.08 | > 5 | > 10 | 974 | > 300 | > 10 | > 20 | > 10 | > 1000 | 133 | > 10 | > 10 | 0.0305 | > 1000 | > 10 | > 10 | > 10 | 2.55 | > 10 | > 10 | > 10 | 22.3 | > 1000 | > 3000 | 4.37 | 278 | 23.6 | > 10 | > 1000 | > 2000 | > 1 | > 1000 | 415 |
